pEC50, pIC50, pKi: −log10 of the molar value. Like-named read-outs stand apart in the source and are kept apart here.
Columns and labels:
MV4-11 cells = test: Cell proliferation assay MV4;11 (CellTiter-Glo, 72 hours); format: cell-based; conditions: Homo sapiens; MV4;11 leukemia cell line, 72 hours; read-out: MV4; 11 IC50
Protocol: Compounds were evaluated for its capacity to inhibit the proliferation of the MLLr leukemia cell line MV4-11 that harbors an MLL1-AF4 fusion protein. MV4-11 cells were cultured for 72 hours with limiting dilutions of compounds and viability was measured using CellTiter-Glo.
Compounds were dissolved to obtain as 10 mM solution in DMSO. The stock was diluted 1:5 to the top concentration of 2 mM in 100% DMSO. For IC50 determination, serial 1:3.16 dilutions were prepared in 100% DMSO by diluting 20 μL into 43.5 μL of DMSO for 8 concentrations. Each prepared DMSO solution were further diluted 1:500 in the cell culture media to obtain the 2× dosing solutions. The final concentrations of tested compounds in the cell culture media ranged from 0.632 nM to 2000 nM.
MV4-11 cells were cultured in IMDM with 10% FBS and 1× Penicillin-Streptomycin at 5% CO2 and 37° C. A cell suspension was prepared containing 15,000 cells/ml in the culture medium and 100 μL of this suspension was added per well to a 96-well cell culture plate. Then, 100 μL of 2× dosing media containing test compounds were added bringing the total volume to 200 μL. These cells were cultured for 72 hours at 37° C. and 5% CO2 in a humidified incubator.
After 72 hours, the cultured cells were mixed and 100p L was transferred to a 96-well black plate. Cell Titer Glo (100 μl) was then added to this plate. The plate was mixed with shaking for 15 mins at RT, the luminescence was then measured using Tecan Spark 20M spectrophotometer. Cell Viability (%) was determined by RLU of test/RLU average vehicle control*100 and % max inhibition was determined by 100−(% cell viability remaining at the top concentration of compound).

hERG = hERG (Homo sapiens (Human), UniProt Q12809); test: Patch clamp assay (hERG tail currents, whole-cell); format: cell-based; conditions: hERG transfected HEK 293 cells; for hERG % Remaining 30 μM: 30 μM compound
Menin-MLL = Menin-MLL (Homo sapiens (Human), UniProt O00255); test: Determination of binding constants (Ki) to Menin-MLL (HTRF)
[1] = HTRF, 0.25 nM H-FL-Menin, 3.2 nM FITC-MLL-4-43, 24 hr incubation, read-out: Menin-MLL Ki HTRF Assay: Ki

Menin-MLL, sequence (O00255 whole entry): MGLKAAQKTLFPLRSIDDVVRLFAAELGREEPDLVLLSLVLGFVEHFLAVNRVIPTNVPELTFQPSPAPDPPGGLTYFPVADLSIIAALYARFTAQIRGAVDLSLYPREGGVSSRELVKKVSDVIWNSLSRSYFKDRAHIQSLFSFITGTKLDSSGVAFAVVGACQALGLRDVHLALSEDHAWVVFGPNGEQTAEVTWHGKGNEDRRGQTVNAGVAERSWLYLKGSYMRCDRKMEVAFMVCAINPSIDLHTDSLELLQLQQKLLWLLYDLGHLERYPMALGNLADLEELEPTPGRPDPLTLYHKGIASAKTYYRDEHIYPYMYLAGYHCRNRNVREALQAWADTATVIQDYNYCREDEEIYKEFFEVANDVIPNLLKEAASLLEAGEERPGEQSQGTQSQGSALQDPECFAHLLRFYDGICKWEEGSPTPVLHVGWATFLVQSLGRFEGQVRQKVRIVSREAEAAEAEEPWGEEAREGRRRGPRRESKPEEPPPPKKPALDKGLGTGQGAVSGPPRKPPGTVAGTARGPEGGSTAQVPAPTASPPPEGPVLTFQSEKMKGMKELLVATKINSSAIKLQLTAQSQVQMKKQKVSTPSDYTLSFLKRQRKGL
hERG, sequence (Q12809 whole entry): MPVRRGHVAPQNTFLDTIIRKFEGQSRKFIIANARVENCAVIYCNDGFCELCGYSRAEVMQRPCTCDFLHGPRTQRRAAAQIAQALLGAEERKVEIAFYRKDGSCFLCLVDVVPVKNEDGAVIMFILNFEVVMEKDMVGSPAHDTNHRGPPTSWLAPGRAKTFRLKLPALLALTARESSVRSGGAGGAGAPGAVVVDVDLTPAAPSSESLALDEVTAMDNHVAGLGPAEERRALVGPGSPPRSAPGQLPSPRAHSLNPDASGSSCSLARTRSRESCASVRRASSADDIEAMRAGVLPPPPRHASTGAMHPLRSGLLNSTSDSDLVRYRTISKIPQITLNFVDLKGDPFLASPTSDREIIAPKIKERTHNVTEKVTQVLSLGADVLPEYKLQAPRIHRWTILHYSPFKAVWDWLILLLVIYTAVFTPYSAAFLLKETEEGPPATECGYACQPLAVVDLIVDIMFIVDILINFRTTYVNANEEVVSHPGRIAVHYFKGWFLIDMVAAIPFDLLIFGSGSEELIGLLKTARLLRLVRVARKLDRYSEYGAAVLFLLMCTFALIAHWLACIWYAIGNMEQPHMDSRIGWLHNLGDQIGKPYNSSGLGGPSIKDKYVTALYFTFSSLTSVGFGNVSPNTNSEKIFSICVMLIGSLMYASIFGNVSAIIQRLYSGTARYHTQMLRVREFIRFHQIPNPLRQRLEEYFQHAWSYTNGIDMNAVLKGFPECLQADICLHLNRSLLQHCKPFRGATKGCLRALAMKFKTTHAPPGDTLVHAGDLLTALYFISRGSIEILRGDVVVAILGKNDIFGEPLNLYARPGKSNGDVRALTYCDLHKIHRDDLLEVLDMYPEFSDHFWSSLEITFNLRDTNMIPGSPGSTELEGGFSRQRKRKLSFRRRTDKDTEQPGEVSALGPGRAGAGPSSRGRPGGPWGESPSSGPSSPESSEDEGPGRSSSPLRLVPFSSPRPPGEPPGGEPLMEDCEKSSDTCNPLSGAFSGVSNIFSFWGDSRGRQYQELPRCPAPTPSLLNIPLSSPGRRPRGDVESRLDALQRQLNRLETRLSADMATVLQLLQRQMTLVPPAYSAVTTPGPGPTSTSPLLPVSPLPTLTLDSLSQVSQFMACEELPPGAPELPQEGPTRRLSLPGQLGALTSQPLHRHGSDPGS

Row | Structure (SMILES) | hERG % Remaining 30 μM (hERG) | pKi (Menin-MLL; [1]) | also measured
1 | CNS(=O)(=O)N[C@H]1CC[C@H](CN2CCC3(CC2)CN(c2ncncc2Oc2ccc(F)cc2C(=O)N(C(C)C)C2CC2)C3)OC1 (stereo in doubt) [Example 146, N-Cyclopropyl-5-fluoro-N-isopropyl-2-((4-(7-(((2R,5S)-5-((N-methylsulfamoyl)amino)tetrahydro-2H-pyran-2-yl)methyl)-2,7-diazaspiro[3.5]nonan-2-yl)pyrimidin-5-yl)oxy)benzamide] | – | – | pIC50 (MV4-11 cells): > 7.00
2 | CO[C@H]1CCN(S(=O)(=O)N[C@@H]2CC[C@@H](CN3CCC4(CC3)CN(c3ncncc3Oc3ccc(F)cc3C(=O)N(C(C)C)C(C)C)C4)OC2)C1 [Compound 210, 5-Fluoro-N,N-diisopropyl-2-((4-(7-(((2S,5R)-5-(((S)-3-methoxypyrrolidine)-1-sulfonamido)tetrahydro-2H-pyran-2-yl)methyl)-2,7-diazaspiro[3.5]nonan-2-yl)pyrimidin-5-yl)oxy)benzamide] | +++ (“+++” means ≥66%) | > 9.00 | –
3 | CO[C@@H]1CCN(S(=O)(=O)N[C@@H]2CC[C@@H](CN3CCC4(CC3)CN(c3ncncc3Oc3ccc(F)cc3C(=O)N(C(C)C)C(C)C)C4)OC2)C1 [Compound 211, 5-Fluoro-N,N-diisopropyl-2-((4-(7-(((2S,5R)-5-(((R)-3-methoxypyrrolidine)-1-sulfonamido)tetrahydro-2H-pyran-2-yl)methyl)-2,7-diazaspiro[3.5]nonan-2-yl)pyrimidin-5-yl)oxy)benzamide] | +++ (“+++” means ≥66%) | > 9.00 | –
4 | CC(C)N(CC(F)F)C(=O)c1cc(F)ccc1Oc1cncnc1N1CC2(CCN(C[C@@H]3CC[C@@H](NS(=O)(=O)N(C)CCCO)CO3)CC2)C1 [Compound 214, N-(2,2-difluoroethyl)-5-fluoro-2-((4-(7-(((2S,5R)-5-((N-(3-hydroxypropyl)-N-methylsulfamoyl)amino)tetrahydro-2H-pyran-2-yl)methyl)-2,7-diazaspiro[3.5]nonan-2-yl)pyrimidin-5-yl)oxy)-N-isopropylbenzamide] | +++ (“+++” means ≥66%) | > 9.00 | –
5 | CCN(C(=O)c1cc(F)ccc1Oc1cncnc1N1CC2(CCN(C[C@@H]3CC[C@@H](NS(=O)(=O)c4ccc(=O)[nH]c4C)CO3)CC2)C1)C(C)C [Compound 217, N-Ethyl-5-fluoro-N-isopropyl-2-((4-(7-(((2S,5R)-5-((2-methyl-6-oxo-1,6-dihydropyridine)-3-sulfonamido)tetrahydro-2H-pyran-2-yl)methyl)-2,7-diazaspiro[3.5]nonan-2-yl)pyrimidin-5-yl)oxy)benzamide] | +++ (“+++” means ≥66%) | > 9.00 | –
6 | CCN(C(=O)c1cc(F)ccc1Oc1cncnc1N1CC2(CCN(C[C@@H]3CC[C@@H](NS(=O)(=O)c4c[nH]c(=O)c(C)c4)CO3)CC2)C1)C(C)C [Compound 218, N-Ethyl-5-fluoro-N-isopropyl-2-((4-(7-(((2S,5R)-5-((5-methyl-6-oxo-1,6-dihydropyridine)-3-sulfonamido)tetrahydro-2H-pyran-2-yl)methyl)-2,7-diazaspiro[3.5]nonan-2-yl)pyrimidin-5-yl)oxy)benzamide] | + (“+” means <33%) | > 9.00 | –
7 | CC(C)N(C(=O)c1cc(F)ccc1Oc1cncnc1N1CC2(CCN(C[C@@H]3CC[C@@H](NS(=O)(=O)N4CC5(CCOC5)C4)CO3)CC2)C1)C(C)C [Compound 223, 2-((4-(7-(((2S,5R)-5-(6-Oxa-2-azaspiro[3.4]octane-2-sulfonamido)tetrahydro-2H-pyran-2-yl)methyl)-2,7-diazaspiro[3.5]nonan-2-yl)pyrimidin-5-yl)oxy)-5-fluoro-N,N-diisopropylbenzamide] | +++ (“+++” means ≥66%) | > 9.00 | –
8 | CC(C)N(C(=O)c1cc(F)ccc1Oc1cncnc1N1CC2(CCN(C[C@@H]3CC[C@@H](NS(=O)(=O)N4CC5COCC5C4)CO3)CC2)C1)C(C)C (stereo partly drawn) [Compound 224, 5-Fluoro-2-((4-(7-(((2S,5R)-5-((hexahydro-1H-furo[3,4-c]pyrrole)-5-sulfonamido)tetrahydro-2H-pyran-2-yl)methyl)-2,7-diazaspiro[3.5]nonan-2-yl)pyrimidin-5-yl)oxy)-N,N-diisopropylbenzamide] | +++ (“+++” means ≥66%) | > 9.00 | –
9 | CCS(=O)(=NC)N[C@@H]1CC[C@@H](CN2CCC3(CC2)CN(c2ncncc2Oc2ccc(F)cc2C(=O)N(C(C)C)C(C)C)C3)OC1 (stereo partly drawn) [Compound 231, 5-Fluoro-N,N-diisopropyl-2-((4-(7-(((2S,5R)-5-(N′-methylethylsulfonoamidimidamido)tetrahydro-2H-pyran-2-yl)methyl)-2,7-diazaspiro[3.5]nonan-2-yl)pyrimidin-5-yl)oxy)benzamide] | +++ (“+++” means ≥66%) | – | pKi (Menin-MLL): > 9.00
10 | CC(C)N(CC(F)F)C(=O)c1cc(F)ccc1Oc1cncnc1N1CC2(CCN(C[C@@H]3CC[C@@H](NS(=O)(=O)NCC(F)F)CO3)CC2)C1 [Compound 235, N-(2,2-Difluoroethyl)-2-((4-(7-(((2S,5R)-5-((N-(2,2-difluoroethyl)sulfamoyl)amino)tetrahydro-2H-pyran-2-yl)methyl)-2,7-diazaspiro[3.5]nonan-2-yl)pyrimidin-5-yl)oxy)-5-fluoro-N-isopropylbenzamide] | +++ (“+++” means ≥66%) | – | pKi (Menin-MLL): > 9.00
11 | CC(C)N(CC(F)F)C(=O)c1cc(F)ccc1Oc1cncnc1N1CC2(CCN(C[C@@H]3CC[C@@H](NS(=O)(=O)N(C)CCO)CO3)CC2)C1 [Compound 239, N-(2,2-difluoroethyl)-5-fluoro-2-((4-(7-(((2S,5R)-5-((N-(2-hydroxyethyl)-N-methylsulfamoyl)amino)tetrahydro-2H-pyran-2-yl)methyl)-2,7-diazaspiro[3.5]nonan-2-yl)pyrimidin-5-yl)oxy)-N-isopropylbenzamide] | +++ (“+++” means ≥66%) | > 9.00 | –
12 | CC(C)N(CC(F)F)C(=O)c1cc(F)ccc1Oc1cncnc1N1CC2(CCN(C[C@@H]3CC[C@@H](NS(N)(=O)=O)CO3)CC2)C1 [Compound 240, N-(2,2-Difluoroethyl)-5-fluoro-N-isopropyl-2-((4-(7-(((2S,5R)-5-(sulfamoylamino)tetrahydro-2H-pyran-2-yl)methyl)-2,7-diazaspiro[3.5]nonan-2-yl)pyrimidin-5-yl)oxy)benzamide] | +++ (“+++” means ≥66%) | > 9.00 | pIC50 (hERG): ≤ 4.30
13 | CC(C)N(CC(F)F)C(=O)c1cc(F)ccc1Oc1cncnc1N1CC2(CCN(C[C@@H]3CC[C@@H](NS(=O)(=O)c4nn(C)cc4F)CO3)CC2)C1 [Compound 241, N-(2,2-Difluoroethyl)-5-fluoro-2-((4-(7-(((2S,5R)-5-((4-fluoro-1-methyl-1H-pyrazole)-3-sulfonamido)tetrahydro-2H-pyran-2-yl)methyl)-2,7-diazaspiro[3.5]nonan-2-yl)pyrimidin-5-yl)oxy)-N-isopropylbenzamide] | ++ (“++” means ≥33% and <66%) | > 9.00 | –
14 | CC(C)N(C(=O)c1cc(F)ccc1Oc1cncnc1N1CC2(CCN(C[C@@H]3CC[C@@H](NS(=O)(=O)N4CCC4)CO3)CC2)C1)C1COC1 [Compound 248, 2-((4-(7-(((2S,5R)-5-(Azetidine-1-sulfonamido)tetrahydro-2H-pyran-2-yl)methyl)-2,7-diazaspiro[3.5]nonan-2-yl)pyrimidin-5-yl)oxy)-5-fluoro-N-isopropyl-N-(oxetan-3-yl)benzamide] | +++ (“+++” means ≥66%) | > 9.00 | –
15 | CC(C)N(C(=O)c1cc(F)ccc1Oc1cncnc1N1CC2(CCN(C[C@@H]3CC[C@@H](NS(=O)(=O)N(C)C)CO3)CC2)C1)C1COC1 [Compound 249, 2-((4-(7-(((2S,5R)-5-((N,N-Dimethylsulfamoyl)amino)tetrahydro-2H-pyran-2-yl)methyl)-2,7-diazaspiro[3.5]nonan-2-yl)pyrimidin-5-yl)oxy)-5-fluoro-N-isopropyl-N-(oxetan-3-yl)benzamide] | +++ (“+++” means ≥66%) | > 9.00 | –
16 | CCS(=O)(=O)N[C@@H]1CC[C@@H](CN2CCC3(CC2)CN(c2ncncc2Oc2ccc(F)cc2C(=O)N(C(C)C)[C@@H]2CC[C@@H]2O)C3)OC1 [Compound 258, 2-((4-(7-(((2S,5R)-5-(Ethylsulfonamido)tetrahydro-2H-pyran-2-yl)methyl)-2,7-diazaspiro[3.5]nonan-2-yl)pyrimidin-5-yl)oxy)-5-fluoro-N-((1R,2S)-2-hydroxycyclobutyl)-N-isopropylbenzamide] | ++ (“++” means ≥33% and <66%) | > 9.00 | hERG % Remaining 10 μM (hERG; 10 μM compound): +++ (“+++” means ≥66%); pEC50 (Menin-MLL; HTRF, 0.25 nM H-FL-Menin, 3.2 nM FITC-MLL-4-43, 24 hr incubation): > 7.30
